The source made the active and inactive calls.
Columns and labels:
[1] = target: T1, Fatty acid synthase (Homo sapiens, UniProt P49327); assay: inhibition of human FAS-TE enzyme activity – biochemical, endpoint fluorescence intensity, uHTS hits, dose response (AID 624327); type: functional;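 further: fluorescence from hydrolysis of an O-methyl fluorescein acyl ester substrate by the enzyme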
[2] = microbe, parasite or virus in culture; type: functional; conditions: Mycobacterium tuberculosis
[3] = target: T1, Fatty acid synthase; assay: inhibition of human FAS-TE enzyme activity – biochemical, kinetic fluorescence intensity, dose response (AID 624326); type: functional;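 further: rate of fluorescence rise from hydrolysis of a fluorogenic O-methyl fluorescein ester substrate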
[4] = test system: Streptococcus; assay: GAS UMAA2166 growth inhibition – luminescence, BacTiterGlo, counter-screen for streptokinase expression inhibitor project, dose response (AID 1915); type: functional, organism-based;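 further: potency for reduction of bacterial viability or growth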
[5] = target: T2, Streptokinase A (Streptococcus pyogenes serotype M1, UniProt P10520); assay: viability-normalized secreted streptokinase activity reduction – plasminogen activation absorbance, OD405, dose response (AID 1914); type: functional, Streptococcus pyogenes M1 GAS;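 further: secreted streptokinase activity via plasminogen activation per viability signal from cell pellet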
T2 sequence (P10520 whole entry): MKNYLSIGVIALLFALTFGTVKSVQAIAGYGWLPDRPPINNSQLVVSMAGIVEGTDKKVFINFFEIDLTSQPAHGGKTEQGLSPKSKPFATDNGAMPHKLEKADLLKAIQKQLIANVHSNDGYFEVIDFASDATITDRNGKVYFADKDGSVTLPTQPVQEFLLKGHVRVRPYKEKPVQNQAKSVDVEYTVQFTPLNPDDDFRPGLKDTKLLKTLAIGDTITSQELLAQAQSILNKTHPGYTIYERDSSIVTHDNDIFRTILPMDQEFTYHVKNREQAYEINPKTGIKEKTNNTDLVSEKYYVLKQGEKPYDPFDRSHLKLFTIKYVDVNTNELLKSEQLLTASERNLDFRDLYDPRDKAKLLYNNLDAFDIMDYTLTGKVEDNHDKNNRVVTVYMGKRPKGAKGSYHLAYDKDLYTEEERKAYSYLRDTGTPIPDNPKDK

[6] = Luminescence Cell-Based Dose Retest to Confirm Inhibitors of Cancer Stem Cells. [Related pubchem assays (depositor defined):AID2717, AID2721]; type: functional; conditions: Homo sapiens
[7] = test system: Streptococcus sp. 'group A'; assay: Streptococcus pyogenes SK(-)GAS viability under kanamycin – luminescence, BacTiterGlo, confirmation, counter-screen for streptokinase expression inhibitor project, dose response (AID 1900); type: functional, organism-based
[8] = target: Large T antigen (Simian virus 40, UniProt P03070); type: functional, Betapolyomavirus macacae;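 further: Confirmatory-stage PubChem screen for compounds that inhibit SV40 T antigen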
Large T antigen, sequence (P03070 whole entry): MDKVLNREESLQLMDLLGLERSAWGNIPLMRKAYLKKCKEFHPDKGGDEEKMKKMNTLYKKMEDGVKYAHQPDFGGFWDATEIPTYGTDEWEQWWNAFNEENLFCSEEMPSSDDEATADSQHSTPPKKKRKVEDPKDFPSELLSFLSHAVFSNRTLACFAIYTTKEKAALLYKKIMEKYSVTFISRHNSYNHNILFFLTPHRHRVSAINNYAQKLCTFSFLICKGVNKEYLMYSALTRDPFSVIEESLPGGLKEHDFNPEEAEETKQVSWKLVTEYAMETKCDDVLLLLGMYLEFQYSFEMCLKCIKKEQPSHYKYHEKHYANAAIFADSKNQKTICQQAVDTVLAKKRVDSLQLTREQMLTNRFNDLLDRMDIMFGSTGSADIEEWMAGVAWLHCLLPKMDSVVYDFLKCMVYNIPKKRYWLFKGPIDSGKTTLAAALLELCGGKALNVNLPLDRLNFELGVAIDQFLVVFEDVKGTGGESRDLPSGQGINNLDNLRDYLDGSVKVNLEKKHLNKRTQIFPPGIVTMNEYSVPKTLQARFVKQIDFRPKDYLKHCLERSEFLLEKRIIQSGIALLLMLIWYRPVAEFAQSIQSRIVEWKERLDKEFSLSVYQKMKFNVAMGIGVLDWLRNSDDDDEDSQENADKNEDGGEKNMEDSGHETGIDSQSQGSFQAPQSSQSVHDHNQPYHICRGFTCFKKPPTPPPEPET

[9] = cells; type: functional, cell-based
[10] = cells; type: functional, cell-based; remark: listed apart in the source
[11] = target: Induced myeloid leukemia cell differentiation protein Mcl-1 (Homo sapiens, UniProt Q07820); type: functional
Induced myeloid leukemia cell differentiation protein Mcl-1, sequence (Q07820 whole entry): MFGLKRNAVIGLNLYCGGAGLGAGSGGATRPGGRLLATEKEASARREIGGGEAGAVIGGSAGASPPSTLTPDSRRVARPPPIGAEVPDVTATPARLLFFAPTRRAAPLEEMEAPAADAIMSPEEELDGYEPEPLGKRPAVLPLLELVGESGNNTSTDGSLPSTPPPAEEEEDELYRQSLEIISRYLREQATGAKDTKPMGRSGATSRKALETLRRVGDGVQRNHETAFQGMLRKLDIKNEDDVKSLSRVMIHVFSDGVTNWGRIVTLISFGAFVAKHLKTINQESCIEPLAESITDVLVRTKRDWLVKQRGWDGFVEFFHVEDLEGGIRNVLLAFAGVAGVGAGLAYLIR

[12] = reduction of Shn3 3'UTR-driven luciferase in osteoblasts – cell-based, Clone20 osteoblasts, firefly luciferase, cherry-picked, dose response (AID 624132); type: functional;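 further: firefly luciferase luminescence from reporter carrying the Shn3 3'UTR in osteoblasts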
[13] = loss of viability in HepG2 cells – cell-based, CellTiter-Glo, cherry-picked, cytotoxicity control for Shn3 inhibitor project, dose response (AID 624134); type: functional
[14] = non-specific 3'UTR reporter inhibition in Clone20-Shn3RL – cell-based, Renilla luciferase, cherry-picked, counter-screen for Shn3 inhibitor project, dose response (AID 624133); type: functional
[15] = Luminescence Cell-Based Dose Response HTS to Identify Inhibitors of 5'UTR Stem-Loop Driven Prion Protein mRNA Translation in H4 Neuroglioblastoma Cells. [Related pubchem assays: 1827 (Project Summary), 1813 (Primary HTS)]; type: functional
[16] = test system: HEK293; assay: EBV LMP1 TES2 canonical NF-kB signalling blockers – cell-based, HEK293, luciferase, cherry-pick, dose response (AID 588343); type: functional; conditions: Homo sapiens
[17] = alpha-synuclein stem-loop luciferase translation blockers – H4 neuroglioma cells, luminescence, confirmation (AID 1988); type: functional, cell-based
[18] = luciferase reporter signal suppression in cells – H4 neuroglioma cells, luminescence, dose response (AID 1990); type: functional, cell-based
[19] = target: T3, Protein skinhead-1 (Caenorhabditis elegans, UniProt P34707); type: functional
T3 sequence (P34707 whole entry): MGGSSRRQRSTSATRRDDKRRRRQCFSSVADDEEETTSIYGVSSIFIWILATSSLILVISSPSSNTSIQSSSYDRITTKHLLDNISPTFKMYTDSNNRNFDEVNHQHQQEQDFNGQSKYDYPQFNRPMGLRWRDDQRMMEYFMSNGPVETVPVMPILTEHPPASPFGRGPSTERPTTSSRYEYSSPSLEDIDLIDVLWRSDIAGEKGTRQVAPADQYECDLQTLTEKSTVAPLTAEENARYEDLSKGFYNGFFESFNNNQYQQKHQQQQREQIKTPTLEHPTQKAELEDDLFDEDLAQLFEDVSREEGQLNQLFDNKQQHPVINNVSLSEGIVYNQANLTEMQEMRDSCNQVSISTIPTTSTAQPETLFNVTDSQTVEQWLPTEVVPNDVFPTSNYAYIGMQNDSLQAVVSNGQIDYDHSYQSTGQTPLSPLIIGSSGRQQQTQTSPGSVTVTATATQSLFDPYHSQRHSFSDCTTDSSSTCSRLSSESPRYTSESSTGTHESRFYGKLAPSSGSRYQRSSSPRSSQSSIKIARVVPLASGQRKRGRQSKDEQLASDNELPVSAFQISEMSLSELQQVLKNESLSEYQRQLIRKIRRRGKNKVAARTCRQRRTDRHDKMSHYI

[20] = test system: INS1; assay: INS-1E survival protection against cytokine death – cell-based, luminescence, retest, dose response (AID 449756); type: functional; conditions: Rattus norvegicus;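 further: cell death triggered by IL-1 beta plus TNF-alpha plus IFN-gamma mixture; protective hits raise ATP signal compared with cytokine alone wells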
[21] = target: T4, Heat shock factor protein 1 (Mus musculus, UniProt P38532); assay: enhancement of HSF1-driven luciferase signal – cell-based, NIH3T3, luminescence, dose retest, confirmation (AID 435004); type: functional;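 further: stress induced by proteasome inhibitor MG132 added 30 min after compound; luciferase reporter driven by HSF1 response element in NIH3T3 cells; actives raise luminescence as potentiators of the MG132 stress response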
T4 sequence (P38532 whole entry): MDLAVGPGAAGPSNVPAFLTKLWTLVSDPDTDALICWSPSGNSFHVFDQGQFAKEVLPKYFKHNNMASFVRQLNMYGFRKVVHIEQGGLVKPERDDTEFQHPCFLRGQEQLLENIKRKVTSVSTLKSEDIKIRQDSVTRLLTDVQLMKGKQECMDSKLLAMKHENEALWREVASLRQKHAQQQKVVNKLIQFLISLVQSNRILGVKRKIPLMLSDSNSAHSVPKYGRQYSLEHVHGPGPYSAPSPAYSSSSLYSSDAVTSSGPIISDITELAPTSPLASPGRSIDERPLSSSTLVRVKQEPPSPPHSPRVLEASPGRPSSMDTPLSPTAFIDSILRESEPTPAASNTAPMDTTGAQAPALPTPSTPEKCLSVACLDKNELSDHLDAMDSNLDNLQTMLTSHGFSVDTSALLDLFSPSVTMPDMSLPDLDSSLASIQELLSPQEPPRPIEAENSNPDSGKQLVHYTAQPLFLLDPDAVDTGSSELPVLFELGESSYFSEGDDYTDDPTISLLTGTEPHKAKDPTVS

[22] = test system: P388/ADR; assay: cells; type: functional; conditions: Mus musculus
[23] = test system: SN12K1; assay: cells; type: functional; conditions: Homo sapiens
[24] = test system: P388; assay: cells; type: functional; conditions: Mus musculus
[25] = NIH3T3 cell viability loss – ATP luminescence, mouse fibroblasts, counter-screen, dose response (AID 2010); type: functional, cell-based;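 further: cells exposed to compound for about 90 hours before reading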
[26] = Trypanosoma cruzi growth suppression in host cells – NIH3T3 host cells, beta-gal luminescence, confirmation (AID 2044); type: functional, cell-based;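 further: intracellular parasites grown in NIH/3T3 mouse fibroblasts as host cells; luminescent beta-galactosidase reporter signal from transgenic T. cruzi replicating inside host cells; inhibitors lower the luminescence signal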

T1 sequence (P49327 whole entry): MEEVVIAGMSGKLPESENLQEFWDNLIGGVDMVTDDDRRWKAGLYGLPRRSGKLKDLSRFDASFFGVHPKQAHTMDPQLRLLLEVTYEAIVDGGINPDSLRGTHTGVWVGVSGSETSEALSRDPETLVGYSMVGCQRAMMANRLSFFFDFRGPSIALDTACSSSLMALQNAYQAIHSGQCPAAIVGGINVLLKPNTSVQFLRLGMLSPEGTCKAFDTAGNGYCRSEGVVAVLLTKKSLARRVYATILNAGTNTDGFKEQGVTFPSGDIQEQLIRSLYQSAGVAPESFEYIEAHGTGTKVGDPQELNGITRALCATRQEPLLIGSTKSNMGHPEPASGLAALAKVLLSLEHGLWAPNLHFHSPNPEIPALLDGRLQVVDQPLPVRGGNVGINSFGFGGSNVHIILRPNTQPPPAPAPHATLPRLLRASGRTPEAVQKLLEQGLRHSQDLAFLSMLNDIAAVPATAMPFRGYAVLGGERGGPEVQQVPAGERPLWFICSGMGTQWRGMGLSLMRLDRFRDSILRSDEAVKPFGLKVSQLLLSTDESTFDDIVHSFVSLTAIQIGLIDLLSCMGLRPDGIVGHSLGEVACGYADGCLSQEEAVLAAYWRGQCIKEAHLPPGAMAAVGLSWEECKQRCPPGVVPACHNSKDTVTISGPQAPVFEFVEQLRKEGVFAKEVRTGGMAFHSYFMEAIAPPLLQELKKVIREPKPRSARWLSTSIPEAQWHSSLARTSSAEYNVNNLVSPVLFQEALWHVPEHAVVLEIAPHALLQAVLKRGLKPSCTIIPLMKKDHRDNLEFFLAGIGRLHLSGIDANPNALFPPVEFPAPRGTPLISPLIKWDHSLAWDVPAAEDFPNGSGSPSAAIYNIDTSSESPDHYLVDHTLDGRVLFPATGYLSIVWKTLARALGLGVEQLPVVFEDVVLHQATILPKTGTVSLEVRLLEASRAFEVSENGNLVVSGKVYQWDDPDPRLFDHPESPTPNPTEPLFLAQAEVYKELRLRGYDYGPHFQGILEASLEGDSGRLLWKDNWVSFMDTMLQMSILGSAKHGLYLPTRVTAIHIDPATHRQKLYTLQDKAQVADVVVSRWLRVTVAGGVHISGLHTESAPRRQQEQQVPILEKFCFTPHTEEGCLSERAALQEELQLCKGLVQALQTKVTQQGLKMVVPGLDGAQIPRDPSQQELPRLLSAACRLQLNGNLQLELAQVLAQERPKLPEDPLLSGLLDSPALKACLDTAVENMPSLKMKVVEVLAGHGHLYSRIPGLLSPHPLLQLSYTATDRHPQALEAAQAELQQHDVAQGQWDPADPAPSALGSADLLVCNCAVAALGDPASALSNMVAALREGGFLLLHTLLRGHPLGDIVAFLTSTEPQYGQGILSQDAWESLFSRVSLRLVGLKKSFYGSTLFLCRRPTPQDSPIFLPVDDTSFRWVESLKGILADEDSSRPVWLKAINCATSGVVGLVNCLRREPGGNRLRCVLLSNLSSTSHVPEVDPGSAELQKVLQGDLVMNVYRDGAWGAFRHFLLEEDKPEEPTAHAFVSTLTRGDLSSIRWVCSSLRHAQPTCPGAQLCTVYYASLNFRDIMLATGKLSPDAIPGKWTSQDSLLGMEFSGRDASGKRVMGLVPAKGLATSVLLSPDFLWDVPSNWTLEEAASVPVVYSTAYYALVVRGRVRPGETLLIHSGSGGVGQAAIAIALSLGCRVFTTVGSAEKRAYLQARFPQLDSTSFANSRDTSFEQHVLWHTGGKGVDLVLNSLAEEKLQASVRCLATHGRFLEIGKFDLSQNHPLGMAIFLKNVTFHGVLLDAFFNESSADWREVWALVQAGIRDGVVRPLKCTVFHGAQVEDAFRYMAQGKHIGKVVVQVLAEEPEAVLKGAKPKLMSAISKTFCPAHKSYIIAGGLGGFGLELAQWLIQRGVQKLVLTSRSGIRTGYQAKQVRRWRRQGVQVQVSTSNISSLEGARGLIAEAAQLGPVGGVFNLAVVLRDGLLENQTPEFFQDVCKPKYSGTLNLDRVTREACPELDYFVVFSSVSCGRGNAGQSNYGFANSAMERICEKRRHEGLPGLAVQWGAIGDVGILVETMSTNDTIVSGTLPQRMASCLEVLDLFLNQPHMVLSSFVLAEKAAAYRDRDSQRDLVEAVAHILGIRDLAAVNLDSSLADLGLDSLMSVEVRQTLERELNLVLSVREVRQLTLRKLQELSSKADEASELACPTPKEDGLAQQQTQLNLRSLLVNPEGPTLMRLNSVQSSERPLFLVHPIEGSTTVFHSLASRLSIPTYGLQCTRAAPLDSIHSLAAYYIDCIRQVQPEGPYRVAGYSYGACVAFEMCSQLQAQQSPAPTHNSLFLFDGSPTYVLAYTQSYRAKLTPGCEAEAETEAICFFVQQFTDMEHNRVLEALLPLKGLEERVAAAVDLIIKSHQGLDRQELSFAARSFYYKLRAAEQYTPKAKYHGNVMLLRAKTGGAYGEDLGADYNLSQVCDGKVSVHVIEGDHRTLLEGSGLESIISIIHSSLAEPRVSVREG

N#Cc1c(-c2ccccc2)c(-c2ccccc2)nn(CC(=O)NNC(=O)Nc2ccc(Cl)c(Cl)c2)c1=O
IC50 [1]: 7.91 µM (active)
CC50 [2]: 32.9 µM (active)
IC50 [3]: 8.07 µM (active)
EC50 [4]: 103 µM (active)
EC50 [5]: 4 µM (active)
AC50 [6]: 1.75 µM (active)
EC50 [7]: 5.78 µM (active)

Oc1ccc(N2CCN(C(c3ccccn3)c3nnnn3C3CCCC3)CC2)cc1 (stereo not drawn)
IC50 [8]: 6.25 µM (active)

N#Cc1ccccc1S(=O)(=O)N1CCN(c2cnccn2)CC1
EC50 [9]: > 350 µM (not active)
EC50 [10]: > 350 µM (not active)

O=C(Nc1ccccc1Cl)c1cnccn1
IC50 [11]: 8.55 µM (not active)

Cc1ccc(-n2ncc3c(N4CCN(c5ccc(F)cc5)CC4)ncnc32)c(C)c1
AC50 [12]: 3.24 µM (active)
AC50 [13]: 2.94 µM (active)
AC50 [14]: 5.66 µM (active)

O=Cc1cccn1-c1ccc(O)cc1
IC50 [8]: > 100 µM (active)

O=S(=O)(c1ccc(C(F)(F)F)cc1)N1CCC(c2nc(O)c3nnn(Cc4ccc(F)cc4)c3n2)CC1
EC50 [9]: > 350 µM (not active)
EC50 [10]: > 350 µM (not active)

O=C(Nc1cnc2ccccn2c1=O)c1ccc(Cl)cc1Cl
EC50 [15]: 5 µM (active)
AC50 [16]: 2.55 µM (active)
EC50 [17]: 5.78 µM (active)
EC50 [18]: 10.1 µM (inconclusive)

CCCn1cnc2cc(NCc3cccc(OC)c3O)ccc21
IC50 [8]: 22.1 µM (active)
IC50 [19]: > 100 µM (inactive)

COC(=O)C1=C(c2ccc(-c3ccccc3)c(F)c2)C[C@@H]2CC[C@H]1N2C(=O)NCC1CC1
AC50 [12]: 4.32 µM (active)
AC50 [13]: > 70 µM (inactive)
AC50 [14]: 30.6 µM (active)

Cc1ccccc1/C=C/C(=O)c1ccc([N+](=O)[O-])o1
AC50 [20]: 3.15 µM (active)
EC50 [4]: 10.6 µM (active)
IC50 [8]: 83.2 µM (active)
EC50 [5]: 50.9 µM (inconclusive)
EC50 [7]: 2.37 µM (active)

CN1CCN(S(=O)(=O)c2ccc(Sc3nnnn3-c3ccccc3)c([N+](=O)[O-])c2)CC1
AC50 [12]: 3.9 µM (active)
AC50 [13]: > 70 µM (inactive)
AC50 [14]: 7.28 µM (active)

Cc1ccc(C(CC(=O)O)C2CCOC(C)(C)C2)cc1 (stereo not drawn)
EC50 [9]: > 350 µM (not active)
EC50 [10]: > 350 µM (not active)

c1cnc(N2CCN(c3ccc4ccccc4n3)CC2)nc1
EC50 [9]: > 350 µM (not active)
EC50 [10]: 11.9 µM (active)
EC50 [21]: > 260 µM (inactive)

O=S(=O)(c1cccc(C(F)(F)F)c1)N1CCC(c2nc(O)c3nnn(Cc4cccc(F)c4)c3n2)CC1
EC50 [9]: > 350 µM (not active)
EC50 [10]: > 350 µM (not active)

COCCn1c(SCC(=O)NCc2ccco2)nnc1-c1c[nH]c2ccccc12
AC50 [16]: 283 µM (active)

Cc1ccc(C(=O)Nc2sc(Cc3ccc4c(c3)OCO4)c(C)c2C(N)=O)cc1
AC50 [16]: 130 µM (active)

CC(C)C1C(=O)N(Cc2cn(CCC3OCCO3)nn2)CCS(=O)(=O)N1Cc1ccc(-c2ccc(Cl)c(Cl)c2)cc1 (stereo not drawn)
AC50 [12]: 1.28 µM (active)
AC50 [13]: > 70 µM (inactive)
AC50 [14]: 3.36 µM (active)

CCOC(=O)CNC(=O)N(CC)C12CC3CC(CC(C3)C1)C2
GI50 [22]: 131 µM (inactive)
GI50 [23]: 109 µM (inactive)
GI50 [24]: 79.1 µM (inactive)

O=C1c2cccc3cc4ccccc4c(c23)C(=O)N1CCNCCN1C(=O)c2cccc3cc4ccccc4c(c23)C1=O
GI50 [22]: 0.16 µM (active)
GI50 [23]: 1.91 µM (inactive)
GI50 [24]: 0.27 µM (active)

NC(=S)N/N=C/c1ccc(OC(=O)COc2ccccc2Cl)cn1
GI50 [22]: 4.97 µM (inactive)
GI50 [23]: 9.29 µM (inactive)
GI50 [24]: 3.31 µM (inactive)

CSc1sc(=S)sc1SC
GI50 [22]: > 100 µM (inactive)
GI50 [23]: > 63.1 µM (inactive)
GI50 [24]: 60.8 µM (inactive)

C=C(NC(=O)C(=C)NC(=O)c1csc(C2=NC3c4csc(n4)C4NC(=O)c5csc(n5)C(C(C)(O)C(C)O)NC(=O)C5CSC(=N5)/C(=C/C)NC(=O)C(C(C)O)NC(=O)c5csc(n5)C3(CC2)NC(=O)C(C)NC(=O)C(=C)NC(=O)C(C)NC(=O)C(C(C)CC)NC2C=Cc3c(C(C)O)cc(nc3C2O)C(=O)OC4C)n1)C(N)=O (stereo not drawn)
GI50 [22]: 1.27 µM (inactive)
GI50 [23]: 0.968 µM (active)
GI50 [24]: 0.0407 µM (active)

C=C1C(=O)OC2CC(C)C3C4OC4C(O)C3(C)C(O)C12 (stereo not drawn)
GI50 [22]: 8.85 µM (inactive)
GI50 [23]: 24.8 µM (inactive)
GI50 [24]: 8.02 µM (inactive)

CCC1OC(=O)C(C)C(OC2CC(C)(O)C(O)C(C)O2)C(C)C(O)C(C)(O)CC(C)C(=O)C(C)C(O)C1C (stereo not drawn)
GI50 [22]: > 300 µM (inactive)
GI50 [23]: > 300 µM (inactive)
GI50 [24]: > 300 µM (inactive)

COC(=O)C1=CC[C@@H]2C(C(=O)O)=CO[C@@H](OC3OC(CO)C(O)C(O)C3O)[C@H]12 (stereo partly drawn)
GI50 [22]: > 139 µM (inactive)
GI50 [23]: > 300 µM (inactive)
GI50 [24]: > 300 µM (inactive)

CCC/C=C/C=C\C(=O)O[C@@H]1[C@@H](C)[C@]2(O)[C@@H]3C=C(C)C(=O)[C@H]3CC(COC(C)=O)=C[C@H]2[C@@H]2C(C)(C)[C@]12OC(C)=O
GI50 [22]: 1.79 µM (inactive)
GI50 [23]: 1.98 µM (inactive)
GI50 [24]: 1.12 µM (inactive)

COc1cc(/C=N/NC(=O)c2nnn(-c3nonc3N)c2-c2cccs2)ccc1O
IC50 [8]: 19.4 µM (active)

COc1cc(/C=N/NC(=O)C2COc3ccccc3O2)ccc1O (stereo not drawn)
IC50 [8]: 8.24 µM (active)

O=C(O)c1cc(N/N=C/c2cccc3ccccc23)ccc1Cl
IC50 [8]: > 100 µM (active)

Oc1ccc(/C=N/Nc2nc(-c3cccnc3)nc3ccccc23)c(O)c1
IC50 [11]: 52.8 µM (not active)

Cc1cccc(/C=N\NC(=O)c2ccc(Cl)cc2)c1O
EC50 [9]: > 350 µM (not active)
EC50 [10]: 6.37 µM (active)
EC50 [25]: 9.57 µM (active)
AC50 [20]: 0.597 µM (active)
EC50 [26]: 0.877 µM (active)
EC50 [21]: 91 µM (active)

Source: ChEMBL document CHEMBL1201862, “PubChem BioAssay data set” (2004)
